# Species on record: Rattus norvegicus
# Assay: DrugMatrix - Regimen: Daily Repeat
# Format: toxicity, organism-based, Sprague-Dawley
# Design: regimen Daily Repeat, gender Male, age 6-8 weeks
# Settings: in vivo, po, route oral GAVAGE, vehicle 100 % WATER; for ABSOLUTE BASOPHIL / ABSOLUTE EOSINOPHIL / ABSOLUTE LYMPHOCYTE / ABSOLUTE MONOCYTE / ABSOLUTE SEGMENTED NEUTROPHIL / BASOPHIL / EOSINOPHIL / ERYTHROCYTE COUNT / HEMATOCRIT / HEMOGLOBIN / LEUKOCYTE COUNT / LYMPHOCYTE / MEAN CORPUSCULAR HEMOGLOBIN / MEAN CORPUSCULAR HEMOGLOBIN CONCENTRATION / MONOCYTE / NEUTROPHIL / NUCLEATED RED BLOOD CELLS / PLATELET COUNT: tissue Blood; for ALANINE AMINOTRANSFERASE / ALBUMIN / ALKALINE PHOSPHATASE / BLOOD UREA NITROGEN / CARBON DIOXIDE / CHLORIDE / CHOLESTEROL / CREATINE PHOSPHOKINASE / CREATININE / GLUCOSE / LACTATE DEHYDROGENASE / LIPASE / PHOSPHORUS / POTASSIUM / SODIUM / TOTAL BILIRUBIN / TOTAL PROTEIN / URIC ACID: tissue Plasma
# [1] = 0 mg/kg, 72 h, dose level Control, time 3 day
# [2] = 0 mg/kg, 120 h, dose level Control, time 5 day
# [3] = 15 mg/kg, 72 h, dose level Low, time 3 day
compound,measurement,setting,value
Cc1ccc(NC(=O)c2ccc(CN3CCN(C)CC3)cc2)cc1Nc1nccc(-c2cccnc2)n1 [IMATINIB],ABSOLUTE BASOPHIL,[1],0 CELLS/uL
same,ABSOLUTE EOSINOPHIL,[1],151.33 CELLS/uL
same,ABSOLUTE LYMPHOCYTE,[1],10599.5 CELLS/uL
same,ABSOLUTE MONOCYTE,[1],109.5 CELLS/uL
same,ABSOLUTE SEGMENTED NEUTROPHIL,[1],1139.67 CELLS/uL
same,BASOPHIL,[1],0%
same,EOSINOPHIL,[1],0.83%
same,ERYTHROCYTE COUNT,[1],5.54 x10E6/uL
same,HEMATOCRIT,[1],35.35%
same,HEMOGLOBIN,[1],13.22 G/DL
same,LEUKOCYTE COUNT,[1],12 x10E3/uL
same,LYMPHOCYTE,[1],89%
same,MEAN CORPUSCULAR HEMOGLOBIN,[1],23.88 pg
same,MEAN CORPUSCULAR HEMOGLOBIN CONCENTRATION,[1],37.4 G/DL
same,MONOCYTE,[1],1%
same,NEUTROPHIL,[1],9.17%
same,NUCLEATED RED BLOOD CELLS,[1],0 /100WBC
same,PLATELET COUNT,[1],1333.33 x10E3/uL
same,ALANINE AMINOTRANSFERASE,[1],53.17 u/L
same,ALBUMIN,[1],4.32 G/DL
same,ALKALINE PHOSPHATASE,[1],404.33 u/L
same,BLOOD UREA NITROGEN,[1],15.67 mg/dL
same,CARBON DIOXIDE,[1],27.33 mmol/L
same,CHLORIDE,[1],101.83 MEQ/L
same,CHOLESTEROL,[1],68.67 mg/dL
same,CREATINE PHOSPHOKINASE,[1],276.17 u/L
same,CREATININE,[1],0.18 mg/dL
same,GLUCOSE,[1],163.5 mg/dL
same,LACTATE DEHYDROGENASE,[1],144.67 u/L
same,LIPASE,[1],8.83 u/L
same,PHOSPHORUS,[1],11.72 mg/dL
same,POTASSIUM,[1],5.99 MEQ/L
same,SODIUM,[1],143.57 MEQ/L
same,TOTAL BILIRUBIN,[1],0.2 mg/dL
same,TOTAL PROTEIN,[1],6.1 G/DL
same,URIC ACID,[1],1.38 mg/dL
same,ABSOLUTE BASOPHIL,[2],0 CELLS/uL
same,ABSOLUTE EOSINOPHIL,[2],248.67 CELLS/uL
same,ABSOLUTE LYMPHOCYTE,[2],12977.83 CELLS/uL
same,ABSOLUTE MONOCYTE,[2],19.67 CELLS/uL
same,ABSOLUTE SEGMENTED NEUTROPHIL,[2],1137.17 CELLS/uL
same,BASOPHIL,[2],0%
same,EOSINOPHIL,[2],1.67%
same,ERYTHROCYTE COUNT,[2],5.82 x10E6/uL
same,HEMATOCRIT,[2],36.35%
same,HEMOGLOBIN,[2],13.58 G/DL
same,LEUKOCYTE COUNT,[2],14.38 x10E3/uL
same,LYMPHOCYTE,[2],90.5%
same,MEAN CORPUSCULAR HEMOGLOBIN,[2],23.32 pg
same,MEAN CORPUSCULAR HEMOGLOBIN CONCENTRATION,[2],37.42 G/DL
same,MONOCYTE,[2],0.17%
same,NEUTROPHIL,[2],7.67%
same,NUCLEATED RED BLOOD CELLS,[2],0 /100WBC
same,PLATELET COUNT,[2],1337.67 x10E3/uL
same,ALANINE AMINOTRANSFERASE,[2],48.5 u/L
same,ALBUMIN,[2],4.32 G/DL
same,ALKALINE PHOSPHATASE,[2],354.33 u/L
same,BLOOD UREA NITROGEN,[2],16 mg/dL
same,CARBON DIOXIDE,[2],27.33 mmol/L
same,CHLORIDE,[2],100.33 MEQ/L
same,CHOLESTEROL,[2],68 mg/dL
same,CREATINE PHOSPHOKINASE,[2],325.17 u/L
same,CREATININE,[2],0.23 mg/dL
same,GLUCOSE,[2],172 mg/dL
same,LACTATE DEHYDROGENASE,[2],254.83 u/L
same,LIPASE,[2],8.33 u/L
same,PHOSPHORUS,[2],12.17 mg/dL
same,POTASSIUM,[2],6.28 MEQ/L
same,SODIUM,[2],143.57 MEQ/L
same,TOTAL BILIRUBIN,[2],0.18 mg/dL
same,TOTAL PROTEIN,[2],6.12 G/DL
same,URIC ACID,[2],1.78 mg/dL
same,ABSOLUTE BASOPHIL,[3],0 CELLS/uL
same,ABSOLUTE EOSINOPHIL,[3],119.67 CELLS/uL
same,ABSOLUTE LYMPHOCYTE,[3],6343 CELLS/uL
same,ABSOLUTE MONOCYTE,[3],102.67 CELLS/uL
same,ABSOLUTE SEGMENTED NEUTROPHIL,[3],568 CELLS/uL
same,BASOPHIL,[3],0%
same,EOSINOPHIL,[3],1.67%
same,ERYTHROCYTE COUNT,[3],5.21 x10E6/uL
same,HEMATOCRIT,[3],33.27%
same,HEMOGLOBIN,[3],12.53 G/DL
same,LEUKOCYTE COUNT,[3],7.13 x10E3/uL
same,LYMPHOCYTE,[3],89.33%
same,MEAN CORPUSCULAR HEMOGLOBIN,[3],24.03 pg
same,MEAN CORPUSCULAR HEMOGLOBIN CONCENTRATION,[3],37.7 G/DL
same,MONOCYTE,[3],1.33%
same,NEUTROPHIL,[3],7.67%
same,NUCLEATED RED BLOOD CELLS,[3],0 /100WBC
same,PLATELET COUNT,[3],1102.33 x10E3/uL
same,ALANINE AMINOTRANSFERASE,[3],49.67 u/L
same,ALBUMIN,[3],4.23 G/DL
same,ALKALINE PHOSPHATASE,[3],362.67 u/L
same,BLOOD UREA NITROGEN,[3],15.33 mg/dL
same,CARBON DIOXIDE,[3],28.33 mmol/L
same,CHLORIDE,[3],102 MEQ/L
same,CHOLESTEROL,[3],64.67 mg/dL
same,CREATINE PHOSPHOKINASE,[3],198.67 u/L
same,CREATININE,[3],0.21 mg/dL
same,GLUCOSE,[3],165 mg/dL
same,LACTATE DEHYDROGENASE,[3],128.33 u/L
same,LIPASE,[3],8 u/L
same,PHOSPHORUS,[3],11 mg/dL
same,POTASSIUM,[3],5.66 MEQ/L
same,SODIUM,[3],144.5 MEQ/L
same,TOTAL BILIRUBIN,[3],0.2 mg/dL
same,TOTAL PROTEIN,[3],6.03 G/DL
same,URIC ACID,[3],0.97 mg/dL
